According to publication PMC5223566, “The Benzopyrone Biochanin-A as a reversible, competitive, and selective monoamine oxidase B inhibitor” (BMC Complementary and Alternative Medicine, 2017):
Values joined by “and” are separate entries in the source; they are usually repeats but may differ in a detail not shown here. Equal values may be shown once. Read-outs that look alike come from different tables or passages of the source.

Legend:
[1] = molecular target: T1, recombinant human MAO-A (hMAO-A) (Homo sapiens, UniProt P21397); test: hMAO-A continuous spectrophotometric assay (enzymatic H2O2 production); format: biochemical; details: for RSA (relative selectivity for hMAO-A): hMAO-B IC50/hMAO-A IC50
T1 construct: purchased Sigma-Aldrich; host or cells: baculovirus infected insect cells
T1 sequence (P21397 1-527): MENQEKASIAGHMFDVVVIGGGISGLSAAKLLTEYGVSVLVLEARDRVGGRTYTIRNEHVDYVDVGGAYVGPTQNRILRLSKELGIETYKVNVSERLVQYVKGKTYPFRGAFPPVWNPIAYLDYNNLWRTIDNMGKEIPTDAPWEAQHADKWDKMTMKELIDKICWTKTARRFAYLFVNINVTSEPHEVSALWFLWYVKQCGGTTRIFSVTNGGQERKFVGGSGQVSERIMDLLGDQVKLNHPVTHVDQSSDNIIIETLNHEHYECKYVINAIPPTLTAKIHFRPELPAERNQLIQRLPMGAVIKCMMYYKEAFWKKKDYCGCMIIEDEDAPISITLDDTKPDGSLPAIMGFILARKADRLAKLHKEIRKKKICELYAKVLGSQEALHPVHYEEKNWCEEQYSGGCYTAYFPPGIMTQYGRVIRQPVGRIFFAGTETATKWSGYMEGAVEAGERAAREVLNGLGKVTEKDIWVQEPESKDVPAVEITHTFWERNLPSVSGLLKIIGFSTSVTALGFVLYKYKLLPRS
Description: (§1) A slightly modified continuous spectrophotometric assay [25] for measuring enzymatic H2O2 production was validated before the experiments. In this assay, the peroxidase chromogen reagent of 1 mM of vanillic acid and 500 μM 4-aminoantipyrine, and 4 U purpurogallin/mL of horseradish peroxidase (HRP) type-II in HBSS (pH 7.4) was prepared and validated with H2O2 standard curve. […] Isozymes were diluted to 0.7 U/mL final concentration by 10 mM HEPES in HBSS (pH 7.4). Substrates final concentrations were optimized to be 0.5 and 3 mM tyramine HCl and benzylamine HCl for hMAO-A and hMAO-B reactions. […] Stock solvents (ethanol or dimethyl sulfoxide) were kept ≤ 2% the final volume of all assays.
(§2) The six benzopyrones of 5 × final concentrations between 0 to 400 μM and PCSEE from 0 to 250 μg/mL of at least ten data points were prepared in HBSS (pH 7.4). […] Freshly prepared volumes of 50 μL of 2.5 × substrate and peroxidase chromogen mix (1:1) were added. Absorbance was immediately read at 490 nm by the Bio-Tek μQuant Monochromatic Microplate Spectrophotometer for time zero. H2O2 production progression for each enzyme was measured every 20 min for the duration of the assay. First read measurements and the blanks background were subtracted from all absorbance values.

[2] = molecular target: T2, recombinant human MAO-B (hMAO-B) (Homo sapiens, UniProt P27338); test: hMAO-B continuous spectrophotometric assay (enzymatic H2O2 production); format: biochemical; details: for IC50: 3 mM benzylamine, 40 min preincubation at RT, ± SEM
T2 construct: purchased Sigma-Aldrich; host or cells: baculovirus infected insect cells
T2 sequence (P27338 1-520): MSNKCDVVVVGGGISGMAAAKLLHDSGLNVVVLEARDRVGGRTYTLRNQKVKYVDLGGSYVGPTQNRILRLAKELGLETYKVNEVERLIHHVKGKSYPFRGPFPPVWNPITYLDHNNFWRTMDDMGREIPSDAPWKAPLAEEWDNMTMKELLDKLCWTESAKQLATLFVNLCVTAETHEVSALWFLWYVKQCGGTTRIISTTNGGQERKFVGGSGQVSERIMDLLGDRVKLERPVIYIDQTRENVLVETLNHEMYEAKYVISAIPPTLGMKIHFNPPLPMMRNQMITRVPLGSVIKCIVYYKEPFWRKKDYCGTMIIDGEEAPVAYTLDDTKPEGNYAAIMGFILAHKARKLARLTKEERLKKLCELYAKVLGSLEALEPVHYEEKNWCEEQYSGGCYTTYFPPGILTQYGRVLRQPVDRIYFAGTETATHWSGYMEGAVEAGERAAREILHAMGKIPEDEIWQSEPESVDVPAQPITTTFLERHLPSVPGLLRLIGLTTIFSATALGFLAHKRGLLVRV
Description: as §1, §2

hMAO-A [3] = molecular target: T3, hMAO-A (Homo sapiens, UniProt P21397); test: hMAO-A MAO-Glo luminescence assay; format: biochemical; details: 10 μg/mL; MAO-Glo kit
T3 construct: purchased Sigma-Aldrich; host or cells: baculovirus infected insect cells
T3 sequence (P21397 1-527): T1 sequence (P21397 1-527)

hMAO-B [4] = molecular target: T4, hMAO-B (Homo sapiens, UniProt P27338); test: hMAO-B recovery after dilution (reversibility); format: biochemical; parameters: purchased Sigma-Aldrich; host or cells: baculovirus infected insect cells
T4 sequence (P27338 1-520): T2 sequence (P27338 1-520)

hMAO-B [5] = molecular target: T4, hMAO-B; test: Michaelis-Menten kinetics of hMAO-B; details: mixed enzyme inhibition model, GraphPad Prism; ± SEM
hMAO-A [6] = molecular target: T3, hMAO-A; test: hMAO-A recovery after dilution (reversibility); format: biochemical
[7] = H2O2 scavenging activity assay; details: 15 μM H2O2; PCSEE and ascorbic acid 62.5, 125, 250 μg/mL; BIO-A 6.25, 12.5, 25 μg/mL
Description: The H2O2 scavenging activity of PCSEE and BIO-A at their highest used MAO inhibitory concentrations was investigated and compared to the standard scavenger L-ascorbic acid. […] Buffer substituted the H2O2 (n = 4) to make blank wells. Immediately, peroxidase chromogen-containing vanillic acid, 4-aminoantipyrine, and HRP type-II were prepared as in the MAO spectrophotometric assay and added as 25 μL per well. The developing color at 490 nm was optimally read within 15 min at RT using Bio-Tek Synergy HTX Multi-Reader absorbance.

hMAO-B [8] = molecular target: T4, hMAO-B; test: hMAO-B MAO-Glo luminescence assay; format: biochemical; parameters: purchased Sigma-Aldrich; host or cells: baculovirus infected insect cells; details: 10 μg/mL; MAO-Glo kit
Description: A slightly modified continuous spectrophotometric assay for measuring enzymatic H2O2 production was validated before the experiments. In this assay, the peroxidase chromogen reagent of 1 mM of vanillic acid and 500 μM 4-aminoantipyrine, and 4 U purpurogallin/mL of horseradish peroxidase (HRP) type-II in HBSS (pH 7.4) was prepared and validated with H2O2 standard curve. The linearity of reaction on the instrument was confirmed to reach up to 1.76 nmol per reaction volume with R^2 of 0.9999. Isozymes were diluted to 0.7 U/mL final concentration by 10 mM HEPES in HBSS (pH 7.4). Substrates final concentrations were optimized to be 0.5 and 3 mM tyramine HCl and benzylamine HCl for hMAO-A and hMAO-B reactions. The assay was run with and without different standard MAOIs with different selectivities (DEP, CLORG, pirlindole, and rasagiline) and monitored for few hours. Isozymes were found stable within the time of incubation. Stock solvents (ethanol or dimethyl sulfoxide) were kept ≤ 2% the final volume of all assays.
A buffer of 12.5 μL was used to make equivalent blank volumes of wells without enzyme. […] Reporter luciferase detects reagent of 50 μL was incubated with each reaction for 20-30 min to inhibit the enzyme and produce luminescence. Arbitrary light units (ALU) signal changes were measured by Synergy HTX Multi-Reader from Bio-Tek and converted to percent control change.

[9] = 0.1 × IC50 after 100-fold dilution (diluted)
[10] = 1 × IC50 after 100-fold dilution (diluted)
[11] = recovery after dilution, monitored with time
[12] = spectrophotometric assay, 0.5 mM tyramine, 40 min preincubation at RT, ± SEM, read-out: hMAO-A IC50

## CC(C)=CCc1cc2c(cc1O)oc(=O)c1c3ccc(O)cc3oc21 [PSD, psoralidin]
[1]; spectrophotometric assay, up to 400 μM
  hMAO-A inhibition (in words): no detectable inhibition
[2]; spectrophotometric assay, up to 400 μM, p < 0.001
  hMAO-B inhibition (in words): partial inhibition

## O=c1ccc2ccc3occc3c2o1 [IPS, isopsoralen]
hMAO-A [3]
  relative effectiveness between isozymes, luminescence assay: more effective against hMAO-A
[1]
  IC50: 20.6 ± 2.45 µM
  RSA (relative selectivity for hMAO-A): 2.5
[2]; spectrophotometric assay
  IC50: 51 ± 0.24 µM

## COc1ccc(-c2coc3cc(O)cc(O)c3c2=O)cc1 [BIO-A, 5,7-dihydroxy-4'-methoxyisoflavone]
hMAO-B [4]; [9]
  % hMAO-B H2O2 production control: 80%
hMAO-B [4]; 1 × IC50, undiluted
  % hMAO-B H2O2 production control: 36%
hMAO-B [4]; [10]
  % hMAO-B H2O2 production control: 51% and ~ 50%
hMAO-B [4]; [11]
  reversibility of hMAO-B inhibition: reversible inhibitor
hMAO-B [5]
  hMAO-B inhibition model alpha: > 1
hMAO-A [6]; [9]
  % hMAO-A H2O2 production control: 90%
hMAO-A [6]; 1 × IC50, undiluted
  % hMAO-A H2O2 production control: 44.5%
hMAO-A [6]; [10]
  % hMAO-A H2O2 production control: 52% and ~ 50%
hMAO-A [6]; [11]
  reversibility of hMAO-A inhibition: reversible inhibitor
[7]
  H2O2 scavenging activity: did not show any scavenging activities

## O=c1ccc2cc3ccoc3cc2o1 [PS, psoralen]
hMAO-A [3]
  relative effectiveness between isozymes, luminescence assay: more effective against hMAO-A
[1]
  RSA (relative selectivity for hMAO-A): 2.0
[1]; [12]
  IC50: 89 ± 5.74 µM
[2]; spectrophotometric assay
  IC50: 175 ± 50.9 µM

## CC(C)=CCc1cc(-c2coc3cc(O)ccc3c2=O)ccc1O [NBI, neobavaisoflavone]
hMAO-A [3]
  relative effectiveness between isozymes, luminescence assay: more effective against hMAO-A
[1]
  RSA (relative selectivity for hMAO-A): 1.2
[1]; [12]
  IC50: 66.5 ± 5.66 µM
[2]; spectrophotometric assay
  IC50: 77.3 ± 10.6 µM

## CC(C)=CCc1c(O)cc2c(c1O)C(=O)C[C@@H](c1ccc(O)cc1)O2 [6-PN, 6-prenylnaringenin]
[1]; [12]
  IC50: 54.53 ± 0.31 µM
hMAO-B [8]
  relative effectiveness between isozymes, luminescence assay: more effective against hMAO-B
[2]; hMAO-A IC50/hMAO-B IC50
  RSB (relative selectivity for hMAO-B): 3.0
[2]; spectrophotometric assay
  IC50: 17.9 ± 1.84 µM

## C#CCN(C)[C@H](C)Cc1ccccc1 [DEP, selegiline, reference compound]
hMAO-A [6]; [9]
  % hMAO-A H2O2 production control: 7%

## O=C1O[C@H]([C@@H](O)CO)C(O)=C1O [ascorbic acid, L-ascorbic acid, reference compound]
[7]
  H2O2 scavenging activity: complete scavenging activity
